Data from patent US20110268757A1, “USE OF PHENOL-SOLUBLE MODULINS FOR VACCINE DEVELOPMENT” (INSTITUT PASTEUR, priority 2008, published 2011).

What was measured:
[1] = tested on: target cells pulsed with peptide 1073; test: In vivo killing assay using target cells pulsed with peptide 1073; details: 5 nmoles peptide with poly I:C, seven days after immunization
Protocol: C57BL6 mice were intravenously immunized intravenously with 5 nmoles of the indicated peptides in combination with 50 μg of the TLR3 ligand poly I:C. In some cases, the peptides were immunized in the presence of TLR2 (peptidoglycan), TLR4 (LPS or the EDA protein) or TLR9 (CpG) ligand. […] On the following day, the mice were sacrificed and the splenocytes were analyzed by flow cytometry to quantify the number of cells with high CFSE labeling with respect to the cells with low CFSE labeling. Thus, the percentage of cell lysis of the cells incubated with the cytotoxic […] peptide can be calculated in an experiment called in vivo killing.
(§1) Thus the peptides αMod-1073, γMod-1073 and δMod-1073 as well as the peptide p1073 alone were synthesized. HELD transgenic mice (which express the human HLA_A2 molecule) were immunized with 5 nmoles of the corresponding peptide in the presence of poly I:C. Seven days after immunization, ELISPOT and in vivo killing assays were carried out as described above using target cells pulsed with peptide 1073.

[2] = tested on: IFNγ producing cells specific for peptide p1073 from hepatitis C NS3 protein; test: ELISPOT of IFNγ producing cells specific for peptide 1073 after immunization; type: in vivo; details: 5 nmoles peptide with poly I:C, seven days after immunization
Protocol: For the analysis of IFNγ-producing cells specific for […] and induced in vivo by the immunizations, ELISPOT experiments were carried out using a BD-pharmingen kit (San Diego, Calif.) and according to the instructions of the manufacturer. Briefly, the plates (Multiscreen HTS, Millipore, Bedford, Mass.) incubated overnight with the anti-IFNγ antibody were blocked for 2 hours with HL-1 medium (Biowhittaker, Verviers, Belgium) containing 10% horse serum. Thus, 5×10^5 splenocytes were incubated in triplicate in the absence or in the presence of the antigens at 37° C. and 5% CO2. On the following day, the plates were washed with PBS and incubated with biotinylated anti-IFNγ antibody (2 mg/ml). After two hours, the plates were washed and incubated with a 1/100 dilution of streptavidin-peroxidase. One hour later, the wells were washed and developed using the AEC substrate set (BD-Pharmingen). The colorimetric reaction was stopped with distilled water and the number of spots was quantified using an ELISPOT automatic reader (CTL, Aalen, Germany).
as §1

[3] = tested on: dendritic cells derived from bone marrow; test: Upregulation of maturation markers on dendritic cells (flow cytometry); type: cell-based, mouse; details: 50 μM peptide, 48 hours
Protocol: (§2) Dendritic cells were grown from bone marrow cells. […] The remaining cells grew in 12 culture plates in complete medium with 10^6 cells/ml supplemented with 20 ng/ml of mGM-CSF and 20 ng/ml of mIL-4 (both from Peprotech; London, GB). Every 2 days the medium was substituted with fresh medium containing cytokines. On day 7, non-adherent dendritic cells were collected, and cultured in the presence or absence of 50 μM of modulin peptides or of 1 μg/ml of LPS (Sigma) and incubated for 48 hours at 37° C. and 5% CO2. After this period, the cells were isolated and incubated with anti IAb, CD54 and CD86 antibodies (Pharmingen). In parallel experiments, the dendritic cells were incubated with the indicated stimuli for 16 hours, after which the expression of the messenger RNA for the p40 molecules of IL-12 and of TNF-α was analyzed.
Expression of DC maturation markers was measured by flow cytometry. DC were harvested and pre-incubated with a rat anti-CD16/32 mAb (2.4G2 clone, BD Pharmingen) for 15 min, to block non-specific binding of primary antibodies. After this initial incubation, cells were stained with the primary antibodies at 4° C. for 15 min, washed and acquired on FACSscan cytometer (BD Biosciences, San Diego, Calif.) and analyzed using Cell Quest software (BD Biosciences).

[4] = tested on: dendritic cells derived from bone marrow; test: Expression of messenger RNA for IL-12 p40 and TNFα in dendritic cells (real-time PCR); type: cell-based, mouse; details: 50 μM peptide, 16 hours, versus culture medium alone, p<0.05
Protocol: as §2
The total RNA of dendritic cells incubated for 16 hours with the different stimuli indicated above were extracted using the Nucleic Acid Purification Lysis Solution (Applied BioSystems, Foster City, Calif.) and the ABI PRISM 6100 Nucleic Acid PrepStation (Applied BioSystems) semiautomatic system.

[5] = tested on: TC-1 tumor cells (expressing the E7 protein of the HPV-16 virus); test: Treatment of mice carrying TC1 subcutaneous tumors; type: in vivo, C57B/6 mice; details: TC1 tumors of 8 mm diameter, i.v. peptide plus 50 μg/ml poly I:C, second immunization seven days later
Protocol: The C57B/6 mice were subcutaneously injected with 5×10^5 TC-1 tumor cells (expressing the E7 protein of the HPV-16 virus). After 25 days, when the tumor reaches a diameter of 8 mm, the mice are intravenously treated with PBS (B), with peptide E7(49-57) plus 50 μg/ml poly I:C(C), or with peptide αMod-E7(49-57) plus 50 μg/ml poly I:C (D). Seven days later, the mice received a second immunization of the same immunogens. The tumor size, presented as the average of two perpendicular diameters, was measured at regular intervals using a gauge. The number of tumor-free mice relative to the total number of animals per group is included for each treatment.

EG7OVA tumor cells [6] = test: Protection against the challenge with EG7OVA tumor cells after immunization; type: in vivo, C57BL/6 mice; details: 5 nmoles peptide with poly I:C
Protocol: Protection against the challenge with EG7 tumor cells expressing the OVA protein C57BL6 mice were subcutaneously immunized with 5 nmol of the indicated peptides in combination with poly I:C. […] In some experiments, mice were first challenged s.c with 5×10^5 cells and when tumors reached 5 mm in diameter they were treated with the indicated peptide. The tumor growth was controlled with a gage. Mice were sacrificed when the tumor reached a volume greater than 4 cm^3. Kaplan-Meier plot of mice survival for each immunogen is depicted.

[7] = tested on: T cells from OT-1 transgenic mice; test: Antigen presentation assay: proliferation of OT-1 T cells (tritiated thymidine); type: cell-based, mouse; details: dendritic cells incubated with 10 μM peptide
Protocol: Dendritic cells derived from bone marrow were cultured in the presence or absence of 10 μM of the indicated peptides (FIG. 3). Forty hours later, the cells were washed and distributed in 96-well plates at different concentrations and incubated in the presence of 10^5 T cells/well obtained from OT-1 transgenic mice (which express a specific T receptor for the SIINFEKL peptide of ovalbumin. Seventy-two hours later, tritiated thymidine was added to the cultures and six hours later the cells were harvested and the incorporated thymidine was analyzed in a scintillation counter (Topcount Packard).

[8] = tested on: splenocytes pulsed with the SIINFEKL peptide; test: In vivo killing assay against SIINFEKL-pulsed splenocytes after immunization; parameters: species or system C57BL/6 mice; details: 5 nmoles peptide plus 50 μg poly I:C
Protocol: C57BL6 mice were intravenously immunized intravenously with 5 nmoles of the indicated peptides in combination with 50 μg of the TLR3 ligand poly I:C. In some cases, the peptides were immunized in the presence of TLR2 (peptidoglycan), TLR4 (LPS or the EDA protein) or TLR9 (CpG) ligand. […] On the following day, the mice were sacrificed and the splenocytes were analyzed by flow cytometry to quantify the number of cells with high CFSE labeling with respect to the cells with low CFSE labeling. Thus, the percentage of cell lysis of the cells incubated with the cytotoxic SIINFEKL peptide can be calculated in an experiment called in vivo killing.
C57BL6 wild type mice and knockout mice were immunized for TLR2 with the aim of studying the dependence on TLR2 in the immunostimulating capacity of modulin-derived peptides. Thus, different mice were injected with 5 nmoles of the indicated peptides or with PBS in combination with 50 μg of the TLR3 ligand poly I:C. […] On the following day, the mice were sacrificed and the splenocytes were analyzed by flow cytometry to quantify the number of cells with high CFSE labeling with respect to the cells with low CFSE labeling in the same manner as in Example 3.

mouse splenocytes = test: Binding of CFSE labeled peptides to glutaraldehyde-fixed splenocytes (flow cytometry); type: cell-based; details: unlabeled competitor 100 μM, 20 μM CFSE γMod-SIINFEKL
Protocol: Binding assays were carried out using either splenocytes (FIG. 1, panels A B, D, E and G) or bone marrow derived dendritic cells (FIG. 1, panels C and F). The cells were fixed by means of an incubation with a 0.4% glutaraldehyde solution for 15 minutes at 4° C. 5×10^5 fixed cells were incubated in the presence of 20 μM CFSE αMod-[sequence] (FIG. 1, panels A, B and C), or CFSE γMod-[sequence] (FIG. 1, panels D, E, F and G). In some assays, and to study the specificity of CFSE labeled peptide binding, these incubations were carried out in the presence or absence of the unlabeled peptides αMod-[sequence], γMod-[sequence] or [sequence] (100 μM) (panels B and E). Also, we carried out binding assays using the CFSE labeled peptide CFSE-OVA (235-264) as a negative control (FIG. 1, panels A, C, D and F). After 30 minutes of incubation at 4° C., two washings with PBS were carried out and the performed labeling was analyzed by flow cytometry. In some experiments (FIG. 1G), double staining was carried out using anti-CD4, CD8, CD11c, CD19, F480 or GR1(CD117) antibodies labeled with phycoerythrin (Pharmingen) together with the CFSE-γMod-[sequence] peptide. In these cases, the labeling with the specific antibodies was carried out before fixing the cells with glutaraldehyde.

[9] = tested on: IFNγ-producing cells in response to the SIINFEKL peptide; test: ELISPOT of IFNγ-producing cells specific for SIINFEKL after immunization; type: in vivo, C57BL/6 mice; details: 5 nmoles peptide plus 50 μg poly I:C
Protocol: C57BL6 mice were intravenously immunized intravenously with 5 nmoles of the indicated peptides in combination with 50 μg of the TLR3 ligand poly I:C. In some cases, the peptides were immunized in the presence of TLR2 (peptidoglycan), TLR4 (LPS or the EDA protein) or TLR9 (CpG) ligand. Seven days after the immunization, the mice were intravenously injected with a mixture of 5×10^6 splenocytes, half of which had been previously labeled with a dose of 0.25 μM C and the other half with 2.5 uM CFSE and the SIINFEKL peptide (10 μg/ml). On the following day, the mice were sacrificed and the splenocytes were analyzed by flow cytometry to quantify the number of cells with high CFSE labeling with respect to the cells with low CFSE labeling. Thus, the percentage of cell lysis of the cells incubated with the cytotoxic SIINFEKL peptide can be calculated in an experiment called in vivo killing.
For the analysis of IFNγ-producing cells specific for SIINFEKL and induced in vivo by the immunizations, ELISPOT experiments were carried out using a BD-pharmingen kit (San Diego, Calif.) and according to the instructions of the manufacturer. Briefly, the plates (Multiscreen HTS, Millipore, Bedford, Mass.) incubated overnight with the anti-IFNγ antibody were blocked for 2 hours with HL-1 medium (Biowhittaker, Verviers, Belgium) containing 10% horse serum. Thus, 5×10^5 splenocytes were incubated in triplicate in the absence or in the presence of the antigens at 37° C. and 5% CO2. On the following day, the plates were washed with PBS and incubated with biotinylated anti-IFNγ antibody (2 mg/ml). After two hours, the plates were washed and incubated with a 1/100 dilution of streptavidin-peroxidase. One hour later, the wells were washed and developed using the AEC substrate set (BD-Pharmingen). The colorimetric reaction was stopped with distilled water and the number of spots was quantified using an ELISPOT automatic reader (CTL, Aalen, Germany).
For the analysis of IFNγ-producing cells in the presence of SIINFEKL and induced in vivo by the immunizations, ELISPOT experiments were carried out using a BD-pharmingen kit (San Diego, Calif.) and according to the instructions of the manufacturer, in the same manner as in Example 3.

EG7OVA tumor cells [10] = test: Treatment of mice bearing established EG7OVA tumors; type: in vivo, C57BL/6 mice; details: EG7OVA tumors of 5 mm diameter at treatment, peptide plus poly I:C, p<0.05
Protocol: Protection against the challenge with EG7 tumor cells expressing the OVA protein C57BL6 mice were subcutaneously immunized with 5 nmol of the indicated peptides in combination with poly I:C. Seven days after the immunization, the mice were subcutaneously injected with 5×10^5 or with 5×10^7 EG7OVA cells. In some experiments, mice were first challenged s.c with 5×10^5 cells and when tumors reached 5 mm in diameter they were treated with the indicated peptide. The tumor growth was controlled with a gage. Mice were sacrificed when the tumor reached a volume greater than 4 cm^3. Kaplan-Meier plot of mice survival for each immunogen is depicted.

In the case of “CVNGVCWTV [Peptide 1073, reference compound]”, the “CTL activity against peptide 1073 (in vivo killing)” value (shortened to “CTL activity”) [1] is reported as “not found” and the “IFNγ producing cells specific for peptide 1073 (ELISPOT)” value (“IFNγ producing cells specific” below) [2] is reported as “not found”.

With MAADIISTIGDLVKWIIDTVNKFKK [γMod] the “expression of CD54 on dendritic cells” value [3] was “promotes the expression”, the “expression of the IAb molecule on dendritic cells” value [3] was “promotes the expression” and the “expression of messenger RNA for IL-12 (p40)” value [4] was “capable of increasing the expression”. For the same substance, the “expression of messenger RNA for TNF-alpha” value [4] was “capable of increasing the expression”.

“MAADIISTIGDLVKWIIDTVNKFKKCVNGVCWTV [γMod-1073]” was tested, and the “CTL activity” value [1] was “high levels of CTL activity” and the “IFNγ producing cells specific” value [2] was “high numbers of IFNγ producing cells”.

“MADVIAKIVEIVKGLIDQFTQK (Staphylococcus epidermidis RP62A) [αMod]” was tested, and the “expression of CD54 on dendritic cells” value [3] was “activates the expression”, the “expression of CD86 on dendritic cells” value [3] was “activates the expression” and the “expression of the IAb molecule on dendritic cells” value [3] was “activates the expression”. The “expression of messenger RNA for IL-12 (p40)” value [4] was “capable of increasing the expression” and the “expression of messenger RNA for TNF-alpha” value [4] was “capable of increasing the expression”.

With “MADVIAKIVEIVKGLIDQFTQKCVNGVCWTV [αMod-1073]” the “CTL activity” value [1] was “strong T cell immune responses” and the “IFNγ producing cells specific” value [2] was “strong T cell immune responses”.

For “MSIVSTIIEVVKTIVDIVKKFKKCVNGVCWTV [δMod-1073]”, the “CTL activity” value [1] was “high levels of CTL activity” and the “IFNγ producing cells specific” value [2] was “high numbers of IFNγ producing cells”.

In the case of “RAHYNIVTF [E7(49-57), reference compound]”, the “number of tumor-free (cured) mice relative to the total number of mice” value [5] is reported as 4 of 11.

With SIINFEKL [reference compound] the “protection from tumor growth after EG7OVA challenge” value (EG7OVA tumor cells [6]; 5×10^5 EG7OVA cells s.c. seven days after immunization (FIG. 5A)) was “developed tumors”, the “protection from tumor growth after EG7OVA challenge” value (EG7OVA tumor cells [6]; 7×10^5 EG7OVA cells s.c. seven days after immunization (FIG. 5B)) was “developed tumors” and the “proliferation of OT-1 T lymphocytes stimulated by peptide-incubated dendritic cells” value [7] was “proliferate better”. For the same substance, the “cells with lysis capacity against SIINFEKL (in vivo killing)” value ([8]; 60 days after immunization) was “not capable of inducing”, the “specific cytotoxic activity against SIINFEKL (in vivo killing)” value ([8]; seven days after immunization) was “not capable of activating these responses” and the “reduction of the bright fluorescence of CFSE γMod-SIINFEKL on splenocytes by unlabeled peptide” value (mouse splenocytes) was “did not affect this signal”. For the same substance, the “IFNγ-producing cells in response to SIINFEKL (ELISPOT)” value ([9]; 60 days after immunization) was “not capable of inducing”, the “IFNγ-producing cells in response to SIINFEKL (ELISPOT)” value ([9]; seven days after immunization) was “not capable of activating these responses” and the “mice rejecting the established tumor” value (EG7OVA tumor cells [10]) was 0%.

With “polyinosinic-polycytidylic acid [poly I:C]” the “mice rejecting the established tumor” value (EG7OVA tumor cells [10]) was 0%.
